Tests used:
Type in all cases: cell-based
[1] = biological target: T1, ATP-dependent translocase ABCB1 (Homo sapiens, UniProt P08183); experiment: Inhibition of human MDR1-mediated rhodamine efflux in mouse L5178 cells assessed as mean fluorescence intensity at 4 ug/mL by flow cytometry
[2] = biological target: T1, ATP-dependent translocase ABCB1; experiment: Inhibition of human MDR1-mediated rhodamine efflux in mouse L5178 cells assessed as mean fluorescence intensity at 40 ug/mL by flow cytometry
[3] = biological target: T1, ATP-dependent translocase ABCB1; experiment: Inhibition of human MDR1-mediated rhodamine efflux in mouse L5178 cells assessed as fluorescence activity ratio at 4 ug/mL by flow cytometry relative to untreated control
[4] = biological target: T1, ATP-dependent translocase ABCB1; experiment: Inhibition of human MDR1-mediated rhodamine efflux in mouse L5178 cells assessed as fluorescence activity ratio at 40 ug/mL by flow cytometry relative to untreated control

T1 sequence (P08183 whole entry): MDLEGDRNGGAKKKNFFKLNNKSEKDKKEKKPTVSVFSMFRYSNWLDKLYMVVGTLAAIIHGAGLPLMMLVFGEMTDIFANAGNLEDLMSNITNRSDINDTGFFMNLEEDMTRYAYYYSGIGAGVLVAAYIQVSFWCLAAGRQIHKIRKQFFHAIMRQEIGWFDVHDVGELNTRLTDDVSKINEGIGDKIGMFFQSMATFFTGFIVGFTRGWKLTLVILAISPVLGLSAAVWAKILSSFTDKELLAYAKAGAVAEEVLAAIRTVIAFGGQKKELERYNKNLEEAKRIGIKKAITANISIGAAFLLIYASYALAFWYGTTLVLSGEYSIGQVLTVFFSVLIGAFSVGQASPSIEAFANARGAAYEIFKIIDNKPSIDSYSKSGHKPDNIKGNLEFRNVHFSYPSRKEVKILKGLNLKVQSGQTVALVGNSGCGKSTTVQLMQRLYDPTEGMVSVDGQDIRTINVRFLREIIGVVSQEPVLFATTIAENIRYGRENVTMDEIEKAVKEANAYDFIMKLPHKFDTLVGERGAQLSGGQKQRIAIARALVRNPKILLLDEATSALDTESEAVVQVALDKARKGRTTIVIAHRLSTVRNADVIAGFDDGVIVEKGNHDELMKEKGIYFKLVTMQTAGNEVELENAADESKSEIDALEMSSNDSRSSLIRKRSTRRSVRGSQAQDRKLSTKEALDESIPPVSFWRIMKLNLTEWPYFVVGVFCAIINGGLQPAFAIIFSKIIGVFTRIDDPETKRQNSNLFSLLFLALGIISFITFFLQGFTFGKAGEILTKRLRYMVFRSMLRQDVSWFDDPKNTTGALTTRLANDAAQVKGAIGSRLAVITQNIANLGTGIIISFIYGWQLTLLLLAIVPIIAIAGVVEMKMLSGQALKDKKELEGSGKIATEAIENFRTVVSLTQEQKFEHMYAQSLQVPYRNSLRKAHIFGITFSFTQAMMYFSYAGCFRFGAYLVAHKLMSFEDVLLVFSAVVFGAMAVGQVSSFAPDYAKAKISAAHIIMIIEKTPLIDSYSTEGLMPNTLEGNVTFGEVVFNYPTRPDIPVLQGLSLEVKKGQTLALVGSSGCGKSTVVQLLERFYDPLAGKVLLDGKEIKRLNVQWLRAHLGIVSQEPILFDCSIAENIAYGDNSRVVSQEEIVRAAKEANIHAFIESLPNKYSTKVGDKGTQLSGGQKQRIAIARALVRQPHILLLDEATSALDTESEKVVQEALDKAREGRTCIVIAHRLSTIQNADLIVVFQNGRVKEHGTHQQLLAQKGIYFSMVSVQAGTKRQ

| SMILES | Flu intensity [1] | Flu intensity [2] | Ratio [3] | Ratio [4] |
| --- | --- | --- | --- | --- |
| CC(=O)OC1[C@@]2(C)[C@@H]3[C@@H](C[C@]1(O)[C@H](OC(C)=O)[C@H]1[C@@H](OC(=O)c4ccccc4)[C@@H](C)C[C@]1(O)[C@@H]2OC(C)=O)C(=O)C(C)(C)[C@H]3OC(C)=O (stereo partly drawn) [EUPHOPORTLANDOL B] | 30.8 | 670.5 | 1.4 | 30.7 |
| CC(=O)OC1[C@]2(O)CC3=C([C@H](OC(C)=O)C(C)(C)C3=O)[C@@]1(C)[C@@H](OC(C)=O)[C@@]1(O)C[C@H](C)[C@H](OC(=O)c3ccccc3)[C@@H]1[C@H]2OC(C)=O (stereo partly drawn) [EUPHOPORTLANDOL A] | 49.8 | 880.2 | 2.3 | 40.3 |

— ChEMBL document CHEMBL1157971, “Euphoportlandols A and B, tetracylic diterpene polyesters from Euphorbia portlandica and their anti-MDR effects in cancer cells” (J Nat Prod, 2006)
